1 compound from ChEMBL document CHEMBL3044829, “New carbodithioate derivatives: synthesis, characterization, and in vitro antibacterial, antifungal, antitubercular, and antimalarial activity” (Med Chem Res, 2013) can be followed below.

The structures appear in SMILES notation. ≈ marks a conversion by molar mass, not a printed value.

The subject of data set [1] is Vero. As to the kind of experiment: Cytotoxicity against Chlorocebus aethiops (African green monkey) Vero cells assessed as inhibition of cell viability at equal to and greater than MIC for Mycobacterium tuberculosis H37Rv after 72 hr by MTT assay. Type of data set: cell-based. Particulars: chlorocebus sabaeus.
Data set [2] deals with Mycobacterium tuberculosis. As to the kind of experiment: Antitubercular activity against Mycobacterium tuberculosis H37Rv MTCC 200 assessed as growth inhibition by L.J. MIC method. Type of data set: functional.
Data set [3] relates to Klebsiella pneumoniae. In words: Antimicrobial activity against Klebsiella pneumoniae MTCC 109 assessed as growth inhibition by broth microdilution method. The data set is classed as functional.
For data set [4], the system named is Escherichia coli. As to the kind of experiment: Antimicrobial activity against Escherichia coli MTCC 443 assessed as growth inhibition by broth microdilution method. The data set is classed as functional. In general terms: Broth dilution looks for growth in wells or tubes with falling amounts of substance.
Data set [5] relates to Aspergillus niger. As to the kind of experiment: Antimicrobial activity against Aspergillus niger MTCC 282 assessed as growth inhibition by broth microdilution method. Type of data set: functional.
Data set [6] has as its system Plasmodium falciparum. In words: Antimalarial activity against chloroquine-sensitive Plasmodium falciparum 3D7 assessed as inhibition of complete maturation into schizonts after 40 hr. The data set is classed as functional. The note with it: 3D7, 40 h.
Data set [7] has as its system Bacillus subtilis. As to the kind of experiment: Antimicrobial activity against Bacillus subtilis MTCC 441 assessed as growth inhibition by broth microdilution method. The data set is classed as functional.
The test system of data set [8] is Aspergillus clavatus. In words: Antimicrobial activity against Aspergillus clavatus MTCC 1323 assessed as growth inhibition by broth microdilution method. Type of data set: functional.
The test system of data set [9] is Mycobacterium tuberculosis. In words: Antitubercular activity against Mycobacterium tuberculosis H37Rv MTCC 200 assessed as growth inhibition at MIC by L.J. MIC method. The data set is classed as functional.
For data set [10], the system named is Pseudomonas aeruginosa. As to the kind of experiment: Antimicrobial activity against Pseudomonas aeruginosa MTCC 1688 assessed as growth inhibition by broth microdilution method. Type of data set: functional.
Data set [11] has as its system Mycobacterium tuberculosis. As to the kind of experiment: Antitubercular activity against Mycobacterium tuberculosis H37Rv MTCC 200 assessed as growth inhibition by BACTEC MGIT method. The data set is classed as functional.
Data set [12] relates to Mycobacterium tuberculosis. In words: Antitubercular activity against Mycobacterium tuberculosis H37Rv MTCC 200 assessed as growth inhibition at 6.25 ug/ml by BACTEC MGIT method. Type of data set: functional.
In data set [13] the test system is Streptococcus pyogenes. In words: Antimicrobial activity against Streptococcus pyogenes MTCC 442 assessed as growth inhibition by broth microdilution method. The data set is classed as functional.
The subject of data set [14] is Candida albicans. As to the kind of experiment: Antimicrobial activity against Candida albicans MTCC 227 assessed as growth inhibition by broth microdilution method. Type of data set: functional.
The subject of data set [15] is Staphylococcus aureus. As to the kind of experiment: Antimicrobial activity against Staphylococcus aureus MTCC 96 assessed as growth inhibition by broth microdilution method. Type of data set: functional.

As usually defined, the MIC is the lowest concentration that inhibits growth of the organism. One may read the MIC99 as the lowest concentration that inhibits either 99% of growth or 99% of the strains tested, depending on the study. In general, inhibition refers to the share of the control response that was lost under treatment. On to `O=C1C(=O)N(CCSC(=S)N2CCN(c3ccc(Cl)c(Cl)c3)CC2)c2ccc([N+](=O)[O-])cc21`, for which the Activity entry in [1] is listed as “Non-toxic”. For the same compound, the MIC in [2] amounted to 6.25 µg/mL (≈ 11.9 µM); in data set [6], 0.072 µg/mL (≈ 0.137 µM); in data set [11], 6.25 µg/mL (≈ 11.9 µM). Further, the MIC99 in data set [3] came out at 100 µg/mL; in data set [4], 100 µg/mL; in [5], 100 µg/mL; in data set [7], 100 µg/mL; in data set [8], 100 µg/mL; in data set [10] it was 62.5 µg/mL. Also, the results for the MIC99 in data set [13], in data set [14] and in data set [15] were 100 µg/mL, 100 µg/mL and 62.5 µg/mL, respectively. Also, in data set [9], the “inhibition (Growth inhibition)” value was determined as 99%. In addition, in data set [12], the inhibition at 6.25 µg/mL is 99%.
